Patent US11345711B2, “8,9-dihydroimidazo[1,2-a]pyrimido[5,4-e]pyrimidin-5(6H)-ones” (IMPACT THERAPEUTICS (SHANGHAI), INC, priority 2016, dated 2022)
Where two headings read alike, the source gives them in different places.

Assays:
Wee1 (h) = Wee1 (h) (Homo sapiens, UniProt P30291); assay: Wee1 kinase (h) detection method, [γ-33P]-ATP filter assay; assay type: biochemical
LoVo cells = assay: MTT based cell viability assay on LoVo cells; conditions: Homo sapiens, LoVo, 72 h, 3 d, read-out: IC50, growth inhibition of LoVo cells
Outline: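 Inhibition of LoVo proliferation was derived as IC50 from a sigmoidal dose-response fit of cell survival. Readout was MTT (0.5 mg/mL, 4 h) with absorbance at 552/630/690 nm, after 3-day treatment at 37 °C. Eight-point series from 10 μM to 0.01 μM, DMSO control, 1% DMSO final.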

NCI-H1299 cells = assay: MTT based cell viability assay on NCI-H1299 cells; conditions: Homo sapiens, read-out: IC50, growth inhibition of NCI-H1299 cells
Outline: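 Viability read-out was MTT reduction (0.5 mg/mL, 4 h, absorbance 552/630/690 nm) after 3-day compound exposure at 37 °C of NCI-H1299 cells seeded at 1000 per well. Dilutions spanned 10 μM–0.01 μM in DMSO, final DMSO 1‰. Survival-versus-concentration curves were fitted sigmoidally to give IC50.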

Sequence of Wee1 (h) (P30291 whole entry): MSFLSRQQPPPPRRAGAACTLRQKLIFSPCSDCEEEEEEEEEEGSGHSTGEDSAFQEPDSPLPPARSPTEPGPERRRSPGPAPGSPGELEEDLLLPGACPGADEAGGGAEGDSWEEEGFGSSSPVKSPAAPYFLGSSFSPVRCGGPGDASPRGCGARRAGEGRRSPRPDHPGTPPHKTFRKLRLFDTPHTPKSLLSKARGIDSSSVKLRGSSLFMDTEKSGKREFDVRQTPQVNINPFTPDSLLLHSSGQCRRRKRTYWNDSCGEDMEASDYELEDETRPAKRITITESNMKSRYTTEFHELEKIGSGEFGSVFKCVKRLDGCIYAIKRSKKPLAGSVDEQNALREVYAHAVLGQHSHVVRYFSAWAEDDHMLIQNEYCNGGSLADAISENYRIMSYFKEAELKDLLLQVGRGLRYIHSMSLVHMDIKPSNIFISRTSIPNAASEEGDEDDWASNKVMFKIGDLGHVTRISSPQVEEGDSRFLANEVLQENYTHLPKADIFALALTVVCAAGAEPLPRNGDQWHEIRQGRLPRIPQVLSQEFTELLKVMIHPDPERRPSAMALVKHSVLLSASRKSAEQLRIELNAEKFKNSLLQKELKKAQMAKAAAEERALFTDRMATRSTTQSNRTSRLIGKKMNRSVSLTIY

SMILES | Inh. (%) of Wee1 kinase enzyme activity (Wee1 (h); C 0.01 μm compound) | Inh. (%) of Wee1 kinase enzyme activity (Wee1 (h); C 0.1 μm compound) | Inh. (%) of Wee1 kinase enzyme activity (Wee1 (h); C 1 μm compound) | IC50 (LoVo cells) | IC50 (NCI-H1299 cells; NCI-H1299 cells) | IC50 (NCI-H1299 cells; NCI-H1299, NCI-H1299 cells)
CN1CCc2ccc(Nc3ncc4c(n3)N3CCN=C3N(c3c(Cl)cccc3Cl)C4=O)cc2C1 [Example 12, 6-(2,6-Dichlorophenyl)-2-((2-methyl-1,2,3,4-tetrahydroisoquinolin-7-yl)amino)-8,9-dihydroimidazo[1,2-a]pyrimido[5,4-e]pyrimidin-5(6H)-one] | 32% | 83% | 98% | 219 nM | 232 nM | 
Cc1cccc(C)c1N1C(=O)c2cnc(Nc3ccc4c(c3)CN(C)CC4(C)C)nc2N2CCN=C21 [Example 16, 6-(2,6-Dimethylphenyl)-2-((2,4,4-trimethyl-1,2,3,4-tetrahydroisoquinolin-7-yl)amino)-8,9-dihydroimidazo[1,2-a]pyrimido[5,4-e]pyrimidin-5(6H)-one] | 15% | 59% | 98% | 4760 nM | 617 nM | 
CN1CCN(c2ccc(Nc3ncc4c(n3)N3CCN=C3N(c3cccnc3)C4=O)cc2)CC1 [Example 98, 6-(Pyridin-3-yl)-2-((4-(4-methylpiperazin-1-yl)phenyl)amino)-8,9-dihydroimidazo[1,2-a]pyrimido[5,4-e]pyrimidin-5(6H)-one] |  |  | 2% | > 100000 nM | > 10000 nM | 
COc1cc(Nc2ncc3c(n2)N2CCN=C2N(c2c(F)cccc2Cl)C3=O)cc(F)c1N1CCN(C)CC1 [Example 124, 6-(2-Chloro-6-fluorophenyl)-2-((3-fluoro-5-methoxy-4-(4-methylpiperazin-1-yl)phenyl)amino)-8,9-dihydroimidazo[1,2-a]pyrimido[5,4-e]pyrimidin-5(6H)-one] | 18% | 62% | 92% | 49.7 nM |  | 138 nM
C[C@@H]1CN(c2ccc(Nc3ncc4c(n3)N3CCN=C3N(c3c(Cl)cccc3Cl)C4=O)c(Cl)c2)C[C@H](C)N1C [Example 67, 6-(2,6-Dichlorophenyl)-2-((2-chloro-4-((3S,5R)-3,4,5-trimethylpiperazin-1-yl)phenyl)amino)-8,9-dihydroimidazo[1,2-a]pyrimido[5,4-e]pyrimidin-5(6H)-one] |  |  | 24% | > 100000 nM | > 10000 nM | 
Cc1cc(N2C[C@@H](C)N(C)[C@@H](C)C2)ccc1Nc1ncc2c(n1)N1CCN=C1N(c1c(F)cccc1Cl)C2=O [Example 43, 6-(2-Chloro-6-fluorophenyl)-2-((2-methyl-4-((3S,5R)-3,4,5-trimethylpiperazin-1-yl)phenyl)amino)-8,9-dihydroimidazo[1,2-a]pyrimido[5,4-e]pyrimidin-5(6H)-one] |  |  | 27% | > 100000 nM | > 10000 nM | 
CN1CCN(c2ccc(Nc3ncc4c(n3)N3CCN=C3N(c3c(Cl)cccc3Br)C4=O)cc2Cl)CC1 [Example 161, 6-(2-Bromo-6-chlorophenyl)-2-((3-chloro-4-(4-methylpiperazin-1-yl)phenyl)amino)-8,9-dihydroimidazo[1,2-a]pyrimido[5,4-e]pyrimidin-5(6H)-one] | 27% | 72% | 97% | 93.3 nM | 217 nM | 
CN1CCN(c2ccc(Nc3ncc4c(n3)N3CCN=C3N(C(C)(C)C)C4=O)cc2)CC1 [Example 19, 6-(Tert-butyl)-2-((4-(4-methylpiperazin-1-yl)phenyl)amino)-8,9-dihydroimidazo[1,2-a]pyrimido[5,4-e]pyrimidin-5(6H)-one] |  |  | 7% | > 100000 nM | > 10000 nM | 
CC(C)N1[C@H](C)CN(c2ccc(Nc3ncc4c(n3)N3CCN=C3N(c3c(F)cccc3Cl)C4=O)cc2)C[C@@H]1C [Example 35, 6-(2-Chloro-6-fluorophenyl)-2-((4-((3S,5R)-4-isopropyl-3,5-dimethylpiperazin-1-yl)phenyl)amino)-8,9-dihydroimidazo[1,2-a]pyrimido[5,4-e]pyrimidin-5(6H)-one] | 27% | 82% | 100% | 262 nM | 287 nM | 
C[C@@H]1CN(c2ccc(Nc3ncc4c(n3)N3CCN=C3N(c3c(F)cccc3Cl)C4=O)c(Cl)c2)C[C@H](C)N1C [Example 39, 6-(2-Chloro-6-fluorophenyl)-2-((2-chloro-4-((3S,5R)-3,4,5-trimethylpiperazin-1-yl)phenyl)amino)-8,9-dihydroimidazo[1,2-a]pyrimido[5,4-e]pyrimidin-5(6H)-one] |  |  | 28% | > 100000 nM | > 10000 nM | 
O=C1c2cnc(Nc3ccc(N4CCNCC4)c(CO)c3)nc2N2CCN=C2N1c1c(Cl)cccc1Cl [Example 180, 6-(2,6-Dichlorophenyl)-2-((3-(hydroxymethyl)-4-(piperazin-1-yl)phenyl)amino)-8,9-dihydroimidazo[1,2-a]pyrimido[5,4-e]pyrimidin-5(6H)-one] |  |  | 96% | 2380 nM | 2050 nM | 
Cc1cc(Nc2ncc3c(n2)N2CCN=C2N(c2c(Cl)cccc2Br)C3=O)cc(Cl)c1N1CCN(C)CC1 [Example 166, 6-(2-Bromo-6-chlorophenyl)-2-((3-chloro-5-methyl-4-(4-methylpiperazin-1-yl)phenyl)amino)-8,9-dihydroimidazo[1,2-a]pyrimido[5,4-e]pyrimidin-5(6H)-one] | 28% | 86% | 98% | 55.5 nM |  | 99.3 nM
C[C@@H]1CN(c2ccc(Nc3ncc4c(n3)N3CCN=C3N(c3c(F)cccc3Cl)C4=O)cc2Cl)C[C@H](C)N1C [Example 47, 2-((3-Chloro-4-((3S,5R)-3,4,5-trimethylpiperazin-1-yl)phenyl)amino)-6-(2-chloro-6-fluorophenyl)-8,9-dihydroimidazo[1,2-a]pyrimido[5,4-e]pyrimidin-5(6H)-one] | 45% | 89% | 98% | 30.5 nM | 330 nM | 
CN1CCN(c2c(Cl)cc(Nc3ncc4c(n3)N3CCN=C3N(c3c(F)cccc3Cl)C4=O)cc2Cl)CC1 [Example 122, 6-(2-Chloro-6-fluorophenyl)-2-((3,5-dichloro-4-(4-methylpiperazin-1-yl)phenyl)amino)-8,9-dihydroimidazo[1,2-a]pyrimido[5,4-e]pyrimidin-5(6H)-one] | 20% | 58% | 91% | 51.8 nM |  | 334 nM
Cc1cc(Nc2ncc3c(n2)N2CCN=C2N(c2c(C)cccc2Cl)C3=O)cc(C)c1N1CCN(C)CC1 [Example 174, 6-(2-Chloro-6-methylphenyl)-2-((3,5-dimethyl-4-(4-methylpiperazin-1-yl)phenyl)amino)-8,9-dihydroimidazo[1,2-a]pyrimido[5,4-e]pyrimidin-5(6H)-one] | 30% | 83% | 94% | 136 nM |  | 152 nM
